Tests used:
[1] = test system: ADP induced platelet aggregation; experiment: "Ex vivo" platelet anti-aggregation activity in rats (ADP induced platelet aggregation, Born aggregometer); set-up: species or system Wistar rats, ITA 177 SPF; details: 100 mg/kg p.o., n = 5, blood drawn 5 hours after administration; for Platelet aggregation %: control 86.4 ± 2.15, Duncan Kramer test p < 0.05; for Platelet aggregation, % inhibition: relative to control
Method: Acetylsalicyclic acid at a dose level of 100 mg/kg p.o. was used as standard.
The products to be tested were administered at the maximum dose of 200 mg/kg, p.o.
Both the standard and the products were administered dissolved or suspended in a 10 ml/kg Tween solution.
The animals were fasted during the test and for 17 hours prior thereto, but had water "ad libitum".
The % aggregation was calculated measuring the difference in mm in the recorder between the initial aggregation stage and the height of the specimen curve 6 minutes after the onset of aggregation.
This figure, therefore, is calculated as a percentage, taking as 100% the figure in mm of the difference between the platelet rich plasma (prp) and the platelet poor plasma (ppp) obtained in balancing the apparatus for the specimen under examination.
"Ex vivo" platelet anti-aggregation activity in rats

[2] = test system: 0.5% acetic acid induced contorsions in NMRI mice; experiment: Peripheral analgesic activity: 0.5% acetic acid induced contorsions in NMRI mice; type: in vivo; details: male NMRI mice, n = 10, 100 mg/kg p.o.; for % inhibition relative to control (contorsions) / No mice with contorsions: 0.5% acetic acid i.p.; for No contorsions (X ± s.e.): 0.5% acetic acid i.p. after 30 minutes, observed half an hour, mean ± s.e., control 27.1 ± 4.3, Duncan Kramer test p < 0.05; for No mice with contorsions: control 10/10
Method: The experimental method consists of injecting an irritant, such as acetic acid, into the […] peritoneum and provoking obviously appreciable painful contorsions such as stretching of the rear paws and twisting of the dorso-abdominal muscles.
The material used consisted of lots of NMRI mice bred in our SPF breeding centre under constant temperature and humidity conditions of 23°±0.5° C. and 70±5%.
Standard: acetylsalicylic acid
Vehicle: propylene glycol/water--40/60 v.
Transparent plastic cages.
With this material the mice were randomly distributed into groups of 10 animals. The test order and the treatment to be given to each group was also randomised. […]
The control lot received the vehicle. As standard, acetylsalicylic acid at a dose level of 100 mg/kg, suspended in the same vehicle and administered p.o., was used.
After 30 minutes, 0.25 ml per 20 g body weight of a 0.5% acetic acid solution was administered intraperitoneally.
The number of painful contorsions were counted and, for evaluating the results, the means of the number of stretches of each lot were calculated and were expressed as inhibition percentages relative to the control, as per the following equation: [formula] where c is the mean of the number of stretches of the control group and b is the mean of the number of stretches of the treated group.
The statistical significance between the lots may be ascertained with the Duncan-Kramer test, with p<0.05.
0.5% acetic acid induced contorsions in NMRI mice male (n = 10)

Row | Compound | Platelet aggregation % [1] [%] | Platelet aggregation, % inhibition [1] [%] | % inhibition relative to control (contorsions) [2] [%] | No contorsions (X ± s.e.) [2] | No mice with contorsions [2]
1 | O=C(O)C(c1ccccc1)n1cccc1 (racemic) [DL(±)-alpha-(N-pyrrolyl)-phenylacetic acid] | 25.3 ± 9.28 | 70.7 | 79.7 | 5.5 ± 1.8 | 7/10
2 | O=C(O)C(c1ccc(O)cc1)n1cccc1 (racemic) [Dibenzylammonium DL(±)-alpha-(N-pyrrolyl)-p-hydroxy-phenylacetate] |  |  | 72.3 | 7.5 ± 2.2 | 9/10
3 | CCOC(=O)C(c1ccccc1)n1cccc1 (racemic) [Ethyl DL(±)-alpha-(N-pyrrolyl)-phenylacetate] | 42.0 ± 2.58 | 51.4 |  |  | 
4 | CC(=O)Oc1ccccc1C(=O)O [Acetylsalicylic acid, reference compound] | 20.1 ± 1.49 | 76.7 | 37.27 | 17 ± 3.5 | 10/10
5 | O=C(O)Cn1cccc1 [Alpha-(N-pyrrolyl)-acetic acid] | 63.1 ± 3.32 | 27.0 |  |  | 
6 | O=C(O)[C@@H](c1ccccc1)n1cccc1 [D(+)-alpha-(N-pyrrolyl)-phenylacetic acid] |  |  | 70.9 | 7.9 ± 2.6 | 8/10
7 | O=C(O)[C@H](c1ccccc1)n1cccc1 [L(-)-alpha-(N-pyrrolyl)-phenylacetic acid] |  |  | 76.2 | 6.4 ± 1.9 | 8/10
8 | CCCCC1C(=O)N(c2ccccc2)N(c2ccccc2)C1=O [Phenylbutazone, reference compound] | 58.2 ± 7.35 | 32.6 |  |  | 
